# In patent US8119633B2, “Substituted sulfonamide compounds” (Gruenenthal GmbH, priority 2007, dated 2012):
# Where two headings read alike, the source gives them in different places.
# What was measured:
# [1] = molecular target: T1, human bradykinin receptor 1 (B1R) (Homo sapiens, UniProt P46663); assay: Functional study on the bradykinin receptor 1 (B1R), human: FLIPR Ca2+ influx assay; assay type: cell-based
# T1 construct: expressed in transfected cells; host or cells: CHO K1 cells
# T1 sequence (P46663 1-353): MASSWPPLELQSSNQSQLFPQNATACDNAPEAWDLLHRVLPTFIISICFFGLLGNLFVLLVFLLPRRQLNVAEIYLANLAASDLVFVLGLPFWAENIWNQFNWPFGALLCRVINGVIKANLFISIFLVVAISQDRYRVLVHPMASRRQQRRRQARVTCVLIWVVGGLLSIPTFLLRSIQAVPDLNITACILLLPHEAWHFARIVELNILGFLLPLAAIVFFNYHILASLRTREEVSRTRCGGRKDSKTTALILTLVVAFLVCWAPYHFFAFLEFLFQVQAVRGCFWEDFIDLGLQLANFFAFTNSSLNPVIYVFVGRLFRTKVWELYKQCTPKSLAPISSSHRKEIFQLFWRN
# Excerpt: Functional Study on the Human Bradykinin Receptor 1 (B1R)
# (§1) The agonistic or antagonistic action of substances can be determined on the bradykinin receptor 1 (B1R) of the species human and rat using the following assay. According to this assay, the Ca^2+ influx through the channel is quantified with the aid of a Ca^2+-sensitive dye (Fluo-4 type, Molecular Probes Europe BV, Leiden, Netherlands) using a Fluorescent Imaging Plate Reader (FLIPR, Molecular Devices, Sunnyvale, USA).
# (§2) Chinese hamster ovary cells (CHO K1 cells) which have been stably transfected with the human B1R gene (hB1R cells) or with the B1R gene of the rat (rB1R cells) are used. For functional studies, the cells are plated out on black 96-well plates having a clear base (BD Biosciences, Heidelberg, Germany or Greiner, Frickenhausen, Germany) in a density of 20,000-35,000 cells/well. The cells are incubated overnight at 37° C. and with 5% CO2 in culture medium (hB1R cells: Nutrient Mixture Ham's F12, Gibco Invitrogen GmbH, Karlsruhe, Germany or DMEM, Sigma-Aldrich, Taufkirchen, Germany; rB1R cells: D-MEM/F12, Gibco Invitrogen GmbH, Karlsruhe, Germany), with 10 vol. % FBS (fetal bovine serum, Gibco Invitrogen GmbH, Karlsruhe, Germany or PAN Biotech GmbH, Aidenbach, Germany).
# (§3) On the following day, the cells are loaded for 60 minutes at 37° C. with 2.13 μM Fluo-4 (Molecular Probes Europe BV, Leiden, Netherlands) in HBSS buffer (Hank's buffered saline solution, Gibco Invitrogen GmbH, Karlsruhe, Germany) with 2.5 mM probenecid (Sigma-Aldrich, Taufkirchen, Germany) and 10 mM HEPES (Sigma-Aldrich, Taufkirchen, Germany). The plates are then washed twice with HBSS buffer, and HBSS buffer additionally containing 0.1% BSA (bovine serum albumin; Sigma-Aldrich, Taufkirchen, Germany), 5.6 mM glucose and 0.05% gelatin (Merck KGaA, Darmstadt, Germany) is added to the plates. After incubation for a further 20 minutes at room temperature, the plates are inserted into the FLIPR for Ca^2+ measurement. Alternatively, washing is carried out with buffer A (15 mM HEPES, 80 mM NaCl, 5 mM KCl, 1.2 mM CaCl2, 0.7 mM MgSO4, 2 g/l glucose, 2.5 mM probenecid) followed by loading with buffer A with added 2.5 μM Fluo-4 and 0.025% Pluronic F127 (Sigma-Aldrich, Taufkirchen, Germany). The cells are then washed twice with buffer A and incubated for 30 minutes at room temperature with buffer A additionally containing 0.05% BSA and 0.05% gelatin and are then inserted into the FLIPR for Ca^2+ measurement.
# (§4) The Ca^2+-dependent fluorescence is measured before and after the addition of substances (λex=488 nm, λem=540 nm). Quantification is carried out by measuring the highest fluorescence intensity (FC, fluorescence counts) over time.
# (§5) The FLIPR protocol consists of two substance additions. Test substances (10 μM) are first pipetted onto the cells and the Ca^2+ influx is compared with the control (hB1R: Lys-Des-Arg^9-bradykinin>=0.5 nM; rB1R: Des-Arg^9-bradykinin 10 μM). This gives the activation in %, based on the Ca^2+ signal after addition of Lys-Des-Arg^9-bradykinin (>=0.5 nM) or Des-Arg^9-bradykinin (10 μM).
# (§6) After 10-20 minutes' incubation, Lys-Des-Arg^9-bradykinin (hB1R) or Des-Arg^9-bradykinin (rB1R) is applied in the concentration of the EC80, and the influx of Ca^2+ is likewise determined.
# (§7) Antagonists lead to suppression of the Ca^2+ influx. The % inhibition compared with the maximum achievable inhibition is calculated.
# (§8) In order to determine the IC50 value, the substances are added in various concentrations. Duplicate or triplicate determinations (n=2 or n=3) are carried out, and these are repeated in at least one further independent experiment (N>=2).
# [2] = molecular target: T2, bradykinin receptor 1 (B1R) of the rat (Rattus norvegicus, UniProt P97583); assay: Functional study on the bradykinin receptor 1 (B1R), rat: FLIPR Ca2+ influx assay; assay type: cell-based
# T2 construct: expressed in transfected cells; host or cells: CHO K1 cells
# T2 sequence (P97583 1-337): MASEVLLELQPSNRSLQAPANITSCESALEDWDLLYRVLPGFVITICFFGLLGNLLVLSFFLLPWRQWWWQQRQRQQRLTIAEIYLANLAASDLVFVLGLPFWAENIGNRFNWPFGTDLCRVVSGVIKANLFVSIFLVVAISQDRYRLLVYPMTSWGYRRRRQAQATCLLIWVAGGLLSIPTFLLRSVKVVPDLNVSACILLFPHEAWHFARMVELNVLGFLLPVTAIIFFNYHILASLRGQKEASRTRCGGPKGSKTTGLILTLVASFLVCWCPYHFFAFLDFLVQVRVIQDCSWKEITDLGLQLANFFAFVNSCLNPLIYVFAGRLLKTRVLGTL
# Excerpt: as §1, §2, §3, §4, §5, §6, §7, §8
# [3] = test substance 10 μM, CHO K1 cells transfected with human B1R, Lys-Des-Arg9-bradykinin at EC80, Ca2+ influx (Fluo-4, FLIPR), read-out: B1R antagonism, human [10 μM] % inhibition
# [4] = test substance 10 μM, CHO K1 cells transfected with rat B1R, Des-Arg9-bradykinin at EC80, Ca2+ influx (Fluo-4, FLIPR), read-out: B1R antagonism, rat [10 μM] % inhibition
SMILES,"inhibition at 10 µM ([1]; CHO-K1, read-out: B1R antagonism, human [10 μM] % inhibition) [%]","inhibition at 10 µM ([2]; CHO-K1, read-out: B1R antagonism, rat [10 μM] % inhibition) [%]","inhibition at 10 µM [1, 3] [%]","inhibition at 10 µM [2, 4] [%]"
"CN(C)C(c1ccccc1)C1CCC(NC(=O)c2ccccc2N(C)S(=O)(=O)c2ccc(Cl)c(Cl)c2)CC1 (stereo not drawn) [Example 11, 2-[(3,4-dichloro-benzenesulfonyl)-methyl-amino]-N-[4-(dimethylamino-phenylmethyl)-cyclohexyl]-benzamide]",85.5,107,,
"COc1ccc(S(=O)(=O)N2CCc3ccccc3C2CC(=O)NC2CCC(C(c3cccc(F)c3)N(C)C)CC2)cc1 (stereo not drawn) [Example 13, N-{4-[dimethylamino-(3-fluoro-phenyl)-methyl]-cyclohexyl}-2-[2-(4-methoxybenzenesulfonyl)-1,2,3,4-tetrahydro-isoquinolin-1-yl]-acetamide]",,,64.4,76
"COc1ccc(S(=O)(=O)N2CCc3ccccc3C2CC(=O)NC2CCC(C(c3ccc(F)cc3)N(C)C)CC2)cc1 (stereo not drawn) [Example 14, N-{4-[dimethylamino-(4-fluoro-phenyl)-methyl]-cyclohexyl}-2-[2-(4-methoxybenzenesulfonyl)-1,2,3,4-tetrahydro-isoquinolin-1-yl]-acetamide]",,,86.9,75
"COc1ccc(S(=O)(=O)N2CCc3ccccc3C2CC(=O)NC2CCC(C(c3cccs3)N(C)C)CC2)cc1 (stereo not drawn) [Example 15, N-[4-(dimethylamino-thiophen-2-yl-methyl)-cyclohexyl]-2-[2-(4-methoxybenzenesulfonyl)-1,2,3,4-tetrahydro-isoquinolin-1-yl]-acetamide]",,,44.6,57
"COc1ccc(S(=O)(=O)N2CCc3ccccc3C2CC(=O)NCC2CCC(C(c3cccc(F)c3)N(C)C)CC2)cc1 (stereo not drawn) [Example 16, N-{4-[dimethylamino-(3-fluoro-phenyl)-methyl]-cyclohexylmethyl}-2-[2-(4-methoxy-benzenesulfonyl)-1,2,3,4-tetrahydro-isoquinolin-1-yl]-acetamide]",,,35.5,57
"COc1ccc(S(=O)(=O)N2CCc3ccccc3C2CC(=O)NCC2CCC(C(c3ccccc3)N(C)C)CC2)cc1 (stereo not drawn) [Example 17, N-[4-(dimethylamino-phenyl-methyl)-cyclohexylmethyl]-2-[2-(4-methoxybenzenesulfonyl)-1,2,3,4-tetrahydro-isoquinolin-1-yl]-acetamide]",,,36.6,41
"COc1ccc(S(=O)(=O)N2CCc3ccccc3C2CC(=O)NCC2CCC(C(CCc3ccccc3)N(C)C)CC2)cc1 (stereo not drawn) [Example 18, N-[4-(1-dimethylamino-3-phenyl-propyl)-cyclohexylmethyl]-2-[2-(4-methoxybenzenesulfonyl)-1,2,3,4-tetrahydro-isoquinolin-1-yl]-acetamide]",,,58.8,73
"COc1ccc(S(=O)(=O)N2CCc3ccccc3C2CC(=O)NCC2CCC(C(c3ccc(F)cc3)N(C)C)CC2)cc1 (stereo not drawn) [Example 19, N-{4-[dimethylamino-(4-fluoro-phenyl)-methyl]-cyclohexylmethyl}-2-[2-(4-methoxy-benzenesulfonyl)-1,2,3,4-tetrahydro-isoquinolin-1-yl]-acetamide]",,,42.7,41
"COc1ccc(S(=O)(=O)N2CCc3ccccc3C2CC(=O)NCC2CCC(C(c3ccc(Cl)cc3)N(C)C)CC2)cc1 (stereo not drawn) [Example 20, N-{4-[(4-chloro-phenyl)-dimethylamino-methyl]-cyclohexylmethyl}-2-[2-(4-methoxy-benzenesulfonyl)-1,2,3,4-tetrahydro-isoquinolin-1-yl]-acetamide]",,,38.8,28
"COc1ccc(S(=O)(=O)N2CCc3ccccc3C2CC(=O)NCC2CCC(C(c3cccs3)N(C)C)CC2)cc1 (stereo not drawn) [Example 21, N-[4-(dimethylamino-thiophen-2-yl-methyl)-cyclohexylmethyl]-2-[2-(4-methoxybenzenesulfonyl)-1,2,3,4-tetrahydro-isoquinolin-1-yl]-acetamide]",,,52.9,41
"COc1ccc(S(=O)(=O)N2CCc3ccccc3C2CC(=O)NCCC2CCC(C(c3ccc(Cl)cc3)N(C)C)CC2)cc1 (stereo not drawn) [Example 22, N-(2-{4-[(4-chloro-phenyl)-dimethylamino-methyl]-cyclohexyl}-ethyl)-2-[2-(4-methoxy-benzenesulfonyl)-1,2,3,4-tetrahydro-isoquinolin-1-yl]-acetamide]",,,70.3,34
"COc1ccc(S(=O)(=O)N2CCc3ccccc3C2CC(=O)NCCC2CCC(C(c3cccc(F)c3)N(C)C)CC2)cc1 (stereo not drawn) [Example 23, N-(2-{4-[dimethylamino-(3-fluoro-phenyl)-methyl]-cyclohexyl}-ethyl)-2-[2-(4-methoxy-benzenesulfonyl)-1,2,3,4-tetrahydro-isoquinolin-1-yl]-acetamide]",,,64,57
"COc1ccc(S(=O)(=O)N2CCc3ccccc3C2CC(=O)NCCC2CCC(C(c3ccc(F)cc3)N(C)C)CC2)cc1 (stereo not drawn) [Example 24, N-(2-{4-[dimethylamino-(4-fluoro-phenyl)-methyl]-cyclohexyl}-ethyl)-2-[2-(4-methoxy-benzenesulfonyl)-1,2,3,4-tetrahydro-isoquinolin-1-yl]-acetamide]",,,82.2,67
"COc1ccc(S(=O)(=O)N2CCc3ccccc3C2CC(=O)NCCC2CCC(C(c3cccs3)N(C)C)CC2)cc1 (stereo not drawn) [Example 25, N-{2-[4-(dimethylamino-thiophen-2-yl-methyl)-cyclohexyl]-ethyl}-2-[2-(4-methoxy-benzenesulfonyl)-1,2,3,4-tetrahydro-isoquinolin-1-yl]-acetamide]",,,79.5,68
"CN(C)C(c1cccc(F)c1)C1CCC(NC(=O)CC2c3ccccc3CCN2S(=O)(=O)c2ccc(Cl)c(Cl)c2)CC1 (stereo not drawn) [Example 26, 2-(2-(3,4-dichlorophenylsulfonyl)-1,2,3,4-tetrahydroisoquinolin-1-yl)-N-(4-((dimethylamino)(3-fluorophenyl)methyl)cyclohexyl)acetamide]",,,97.4,73
